This is an account of results in patent US9718790B2, “Triazine derivative and pharmaceutical composition having an analgesic activity comprising the same” (SHIONOGI & CO., LTD., priority 2010, dated 2017).

The target in one assay is human P2X3 receptor (Homo sapiens (Human), UniProt P56373). Put plainly: Evaluation of human P2X3 receptor inhibitory activity (Fluo-3 calcium fluorescence, FDSS 3000, ATP stimulation).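 Note: stimulus was 50 nM ATP with fluorescence followed for 3 min, and the response per well was peak post-ATP fluorescence divided by the reading at measurement start.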 The format is cell-based. The following applies: C6BU-1 cells stably expressing human P2X3 receptor.
Sequence of human P2X3 receptor (P56373 whole entry): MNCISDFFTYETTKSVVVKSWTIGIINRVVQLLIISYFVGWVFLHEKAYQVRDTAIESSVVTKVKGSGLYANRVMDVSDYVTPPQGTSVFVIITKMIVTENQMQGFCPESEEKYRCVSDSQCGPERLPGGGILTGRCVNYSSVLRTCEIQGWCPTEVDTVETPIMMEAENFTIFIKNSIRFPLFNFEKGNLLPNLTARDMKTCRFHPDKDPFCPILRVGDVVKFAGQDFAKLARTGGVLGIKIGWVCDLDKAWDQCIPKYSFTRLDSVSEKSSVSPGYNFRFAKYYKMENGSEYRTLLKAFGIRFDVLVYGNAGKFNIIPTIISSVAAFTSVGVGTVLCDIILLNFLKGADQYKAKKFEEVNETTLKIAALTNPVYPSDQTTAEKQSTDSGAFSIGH
As a reminder, the IC50 is the concentration that inhibits the measured activity by half. With `CCOC(=O)CCn1c(=O)[nH]/c(=N\c2ccc(OC(C)C)c(CO)c2)n(Cc2ccc(C)cc2)c1=O` [Compound I-1424], the IC50 turned out to be 35 nM.
Regarding `COC(=O)[C@H](C)[C@H](C)n1c(=O)[nH]/c(=N\c2ccc(CC(C)C)c(OC)c2)n(Cc2ccc(Cl)cc2)c1=O` [Compound I-1363], the concentration for half-maximal inhibition (IC50) came out at 56 nM.
On the same count and under the same terms, then `CC(C)Cc1ccc(/N=c2\[nH]c(=O)n([C@H](C)[C@H](C)C(=O)O)c(=O)n2Cc2ccc(Cl)cc2)cc1Cl` [Compound I-1445], with 4 nM; and `COC(=O)[C@@H](C)Cn1c(=O)[nH]/c(=N\c2ccc(OC(F)F)c(F)c2)n(Cc2ccc(Cl)cc2)c1=O` [Compound I-0655], with 67 nM; and `COC(=O)[C@@H](C)Cn1c(=O)[nH]/c(=N\c2ccc(Cc3ccncc3)cc2)n(Cc2ccc(C)cc2)c1=O` [Compound I-1241], with 108 nM.
With `COCCOc1ccc(/N=c2\[nH]c(=O)n(C[C@H](C)C(=O)O)c(=O)n2Cc2ccc(Cl)cc2)cc1Cl` [Compound I-0789], the concentration for half-maximal inhibition (IC50) stood at 181 nM.
Turning to `Cc1cc(Oc2ccc(/N=c3\[nH]c(=O)n(CCCC(=O)O)c(=O)n3Cc3ccc(Cl)cc3)cc2)ccn1` [Compound I-1404], the IC50 was 24 nM.
In the case of `CCCOc1ccc(/N=c2\[nH]c(=O)n(C[C@H](C)C(=O)OC)c(=O)n2Cc2ccc(Cl)cc2)cc1` [Compound I-0619], the IC50 is 14 nM.
The same measure, in the same setting: next, `C[C@@H](Cn1c(=O)[nH]/c(=N\c2ccc(OC3CCC3)cc2)n(Cc2ccc(Cl)cc2)c1=O)C(=O)O` [Compound I-1284]: 15 nM.
With `CC(C)Oc1ccc(/N=c2\[nH]c(=O)n(CC(=O)NC(CO)CO)c(=O)n2Cc2ccc(Cl)cc2)cc1Cl` [Compound I-0665], the IC50 was 4 nM.
As for `Cc1cc2cc(/N=c3\[nH]c(=O)n(CCCOC4CCCCO4)c(=O)n3Cc3ccc(Cl)cc3)ccc2o1` (stereo not shown) [Compound I-2025], the concentration for half-maximal inhibition (IC50) is 5 nM.
In the case of `CCn1c(=O)[nH]/c(=N\c2ccc(Oc3ccc(C(=O)OC)cc3)cc2)n(Cc2ccc(C)cc2)c1=O` [Compound I-2029], the IC50 is 4 nM.
`CC[C@@H](CC(=O)O)n1c(=O)[nH]/c(=N\c2ccc(OC(C)C)c(C)c2)n(Cc2ccc(Cl)cc2)c1=O` [Compound I-0798]: the IC50 turned out to be 465 nM.
Consider `Cc1ccc(Cn2c(=O)n([C@@H](C)[C@@H](C)C(=O)O)c(=O)[nH]/c2=N\c2ccc(OC(C)C)c(Br)c2)cc1` [Compound I-1334], for which the IC50 stood at 11 nM.
For the compound `Cc1ccc(Cn2c(=O)n(C[C@H](C)C(=O)O)c(=O)[nH]/c2=N\c2ccc(N3CCCCCC3)cc2)cc1` [Compound I-1237], the IC50 came out at 183 nM.
For the compound `O=c1ccccn1-c1ccc(/N=c2\[nH]c(=O)n(CCO)c(=O)n2Cc2ccc(Cl)cc2)cc1` [Compound I-2044], the IC50 came to 125 nM.
On to `CC(C)Oc1ccc(/N=c2\[nH]c(=O)n(Cc3noc(=O)[nH]3)c(=O)n2Cc2ccc(Cl)cc2)cc1F` [Compound I-0601], for which the IC50 turned out to be 31 nM.
On to `CC1(C)OCC(Cn2c(=O)[nH]/c(=N\c3ccc4nc(C5CC5)sc4c3)n(Cc3ccc(Cl)cc3)c2=O)CO1` [Compound I-1982], for which the half-maximal inhibitory concentration (IC50) was found to be 9 nM.
As to `COC(=O)CCCCn1c(=O)[nH]/c(=N\c2ccc3nc(C)sc3c2)n(Cc2ccc(C)cc2)c1=O` [Compound I-2155], the concentration for half-maximal inhibition (IC50) stood at 4 nM.
As to `CCn1c(=O)[nH]/c(=N\c2ccc(Oc3ccnc(C(=O)NC)c3)cc2)n(Cc2ccc(C)cc2)c1=O` [Compound I-2013], the IC50 is 3 nM.
`COC(=O)[C@@H](C)Cn1c(=O)[nH]/c(=N\c2ccc(CC#N)c(Cl)c2)n(Cc2ccc(Cl)cc2)c1=O` [Compound I-0766]: the IC50 came out at 438 nM.
With `Cc1cc(/N=c2\[nH]c(=O)n(CCC(=O)O)c(=O)n2Cc2ccc(Cl)cc2)ccc1OC1CCC1` [Compound I-1407], the IC50 was found to be 36 nM.
Take `O=c1[nH]/c(=N\c2ccc(OC3CCC3)cc2)n(Cc2ccc(Cl)cc2)c(=O)n1CCCO` [Compound I-1918]: the IC50 was found to be 12 nM.
As for `COC(=O)[C@@H](C)Cn1c(=O)[nH]/c(=N\c2ccc(CC(C)C)c(F)c2)n(Cc2ccc(C)cc2)c1=O` [Compound I-1252], the IC50 is 23 nM.
For the compound `COC(=O)[C@@H](C)Cn1c(=O)[nH]/c(=N\c2ccc(OC(C)C)c(Cl)c2)n(Cc2ccc(F)cc2)c1=O` [Compound I-0626], the IC50 is 22 nM.

The assay is the same for the next values; noted with them: C6BU-1 cells stably expressing human P2X3 receptor, Fluo-3 fluorescence, FDSS 3000.
Turning to `COC(=O)[C@@H](C)Cn1c(=O)[nH]/c(=N\c2ccc(CCC3CC3)c(C)c2)n(Cc2ccc(Cl)cc2)c1=O` [Compound I-1023], the IC50 is 300 nM.
For `CCN(c1ccc(/N=c2\[nH]c(=O)n(C[C@H](C)C(=O)OC)c(=O)n2Cc2ccc(Cl)cc2)cc1)C(C)C` [Compound I-0952], the IC50 was 741 nM.
For the compound `CC(C)Oc1ccc(/N=c2\[nH]c(=O)n(CC(CO)(CO)C(=O)O)c(=O)n2Cc2ccc(Cl)cc2)cc1Cl` [Compound I-1012], the IC50 was 51 nM.
For `CC[C@H](C)Oc1ccc(/N=c2\[nH]c(=O)n(C[C@H](C)C(=O)O)c(=O)n2Cc2ccc(C)cc2)cc1Cl` [Compound I-1014], the IC50 turned out to be 17 nM.
On to `COC(=O)CCn1c(=O)[nH]/c(=N\c2ccccc2NC(C)=O)n(Cc2ccc(C)cc2)c1=O` [Compound I-1892], for which the IC50 is 113 nM.
The same measure, in the same setting: next, `COC(=O)[C@@H](C)Cn1c(=O)[nH]/c(=N\c2ccc(C3CCCC3)cc2)n(Cc2ccc(C)cc2)c1=O` [Compound I-1090]: 135 nM.
`CCOC(=O)CCn1c(=O)[nH]/c(=N\c2ccc(OC(C)C)c(Br)c2)n(Cc2ccc(C)cc2)c1=O` [Compound I-1168]: the IC50 came to 4 nM.
For the compound `Cc1ccc(Cn2c(=O)n(CCC(=O)O)c(=O)[nH]/c2=N\c2ccc(OCC3CC3)cc2)cc1` [Compound I-1148], the IC50 was 86 nM.
The same measure, in the same setting: next, `CCOC(=O)C1(Cn2c(=O)[nH]/c(=N\c3ccc(OCC(C)C)cc3)n(Cc3ccc(Cl)cc3)c2=O)CC1` [Compound I-1007]: 15 nM; `C[C@@H](C(=O)O)[C@H](C)n1c(=O)[nH]/c(=N\c2ccc3c(c2)sc(=O)n3CC(F)(F)F)n(Cc2ccc(Cl)cc2)c1=O` [Compound I-1780]: 932 nM.
On to `CCc1oc2ccc(/N=c3\[nH]c(=O)n(CC(C)(C)C(=O)OC)c(=O)n3Cc3ccc(C)cc3)cc2c1C` [Compound I-1575], for which the IC50 came out at 9 nM.
Still for that read-out and setting: next, `COC(=O)CC1(Cn2c(=O)[nH]/c(=N\c3ccc(OC(C)C)c(Cl)c3)n(Cc3ccc(Cl)cc3)c2=O)CC1` [Compound I-0977]: 15 nM; `CC[C@@H](C)Oc1ccc(/N=c2\[nH]c(=O)n(C[C@H](C)C(=O)OC)c(=O)n2Cc2ccc(C)cc2)cc1Cl` [Compound I-1015]: 7 nM.
On to `COC(=O)[C@H](C)[C@H](C)n1c(=O)[nH]/c(=N\c2ccc(OC(C)C)c(Cl)c2)n(Cc2ccc(Cl)cc2)c1=O` [Compound I-0917], for which the IC50 came to 19 nM.
As to `COC(=O)[C@H](C)[C@H](C)n1c(=O)[nH]/c(=N\c2ccc(OCC3CC3)cc2)n(Cc2ccc(C)cc2)c1=O` [Compound I-0965], the IC50 was 21 nM.
Same read-out and setting: next, `COC(=O)[C@@H](C)Cn1c(=O)[nH]/c(=N\c2ccc(OC(F)F)cc2)n(Cc2ccc(Cl)cc2)c1=O` [Compound I-1166]: 126 nM.
On to `CCc1nc2ccc(/N=c3\[nH]c(=O)n(CCC#N)c(=O)n3Cc3ccc(Cl)cc3)cc2s1` [Compound I-1769], for which the IC50 was determined as 3 nM.
`COC(=O)[C@H](C)[C@H](C)n1c(=O)[nH]/c(=N\c2ccc(OC(C)C)c(Cl)c2)n(Cc2ccc(C)cc2)c1=O` [Compound I-0928]: the IC50 amounted to 14 nM.

Still in this assay, the particulars now being: human P2X3 receptor, Test Example 1.
As to `Cc1ccc(Cn2c(=O)n(C)c(=O)[nH]/c2=N\c2ccc(Oc3cc(C(N)=O)ccn3)cc2)cc1` [Compound I-2342], the IC50 is 16 nM.
For `CCn1c(=O)[nH]/c(=N\c2ccc(Oc3cccc(C#N)c3)cc2)n(Cc2ccc(Cl)cc2)c1=O` [Compound I-2305, 1-(4-chlorobenzyl)-6-[4-(3-cyanophenoxy)phenylimino]-3-ethyl-1,3,5-triazinane-2,4-dion], the IC50 was 4 nM.
Consider `Cc1nsc(Oc2ccc(/N=c3\[nH]c(=O)n(CCC(=O)O)c(=O)n3Cc3ccc(Cl)cc3)cc2)n1` [Compound I-2697], for which the IC50 was 19 nM.
Same read-out and setting: next, `Cc1nsc(Oc2ccc(/N=c3\[nH]c(=O)n(CC(=O)NCCO)c(=O)n3Cc3ccc(Cl)cc3)cc2)n1` [Compound I-2678]: 3 nM; `CCn1c(=O)[nH]/c(=N\c2ccc(Oc3cccc(C(N)=O)n3)cc2)n(C[C@H]2CC[C@H](C)CC2)c1=O` [Compound I-2497]: 1 nM; `CCn1c(=O)[nH]/c(=N\c2ccc(Oc3ccnc(CNC)c3)cc2)n(Cc2ccc(Cl)cc2)c1=O` [Compound I-2245]: 108 nM.
Turning to `CCn1c(=O)[nH]/c(=N\c2ccc(Oc3ccc(C(=O)NC)nn3)cc2)n(Cc2ccc(Cl)cc2)c1=O` [Compound I-2533], the concentration for half-maximal inhibition (IC50) was 4 nM.
On to `Cc1ccc(Cn2c(=O)n(C)c(=O)[nH]/c2=N\c2ccc(Oc3ccc(C(=O)O)cn3)cc2)cc1` [Compound I-2401], for which the IC50 came out at 18 nM.
For `O=C(O)Cn1c(=O)[nH]/c(=N\c2ccc(Oc3ncns3)cc2)n(Cc2ccc(Cl)cc2)c1=O` [Compound I-2659], the IC50 worked out at 277 nM.
On the same count and under the same terms, then `NC(=O)CCn1c(=O)[nH]/c(=N\c2ccc(Oc3ncccn3)cc2)n(Cc2ccc(Cl)cc2)c1=O` [Compound I-2565], with 17 nM; and `Cc1cc(/N=c2\[nH]c(=O)n(C[C@H](C)C(=O)O)c(=O)n2Cc2ccc(Cl)cc2)cnc1OC1CCC1` [Compound I-1483], with 87 nM.
For `CC[C@@H](Cn1c(=O)[nH]/c(=N\c2ccc(OC(C)C)c(C)c2)n(Cc2ccc(Cl)cc2)c1=O)C(=O)O` [Compound I-0889], the IC50 stood at 53 nM.
Regarding `Cc1ccc(Cn2c(=O)n(C)c(=O)[nH]/c2=N\c2ccc(Oc3ccc(C#N)cn3)cc2)cc1` [Compound I-2393], the IC50 came to 10 nM.
Turning to `CCn1c(=O)[nH]/c(=N\c2ccc(Oc3nccc(C(=O)O)n3)cc2)n(Cc2ccc(C)cc2)c1=O` [Compound I-2404], the IC50 was 16 nM.
Same read-out and setting: then `NC(=O)c1cccc(Oc2ccc(/N=c3\[nH]c(=O)n(CCC(=O)O)c(=O)n3Cc3ccc(Cl)cc3)cc2)n1` [Compound I-2693], with 12 nM.
